In ChEMBL document CHEMBL4507276 (2021):

How the values were obtained:
[1] = biological target: Mitogen-activated protein kinase kinase kinase kinase 5 (Homo sapiens) (UniProt Q9Y4K4); test: MAP4K5 Invitrogen selectivity data (BI); details: Compound concentration 3.0 uM
[2] = biological target: Glutamate NMDA receptor (Rattus norvegicus) (UniProt P35439+Q00959+Q00960+Q00961+Q62645+Q8VHN2+Q9R1M7); test: PCP/R Cerep selectivity data (BI); type: protein-complex assay; details: Compound concentration 20.0 uM
[3] = biological target: Histamine H4 receptor (Homo sapiens) (UniProt Q9H3N8); test: H4/H AG Cerep selectivity data (BI); details: filed as agonist, Compound concentration 20.0 uM
Chain of Histamine H4 receptor (Homo sapiens) (Q9H3N8 whole entry): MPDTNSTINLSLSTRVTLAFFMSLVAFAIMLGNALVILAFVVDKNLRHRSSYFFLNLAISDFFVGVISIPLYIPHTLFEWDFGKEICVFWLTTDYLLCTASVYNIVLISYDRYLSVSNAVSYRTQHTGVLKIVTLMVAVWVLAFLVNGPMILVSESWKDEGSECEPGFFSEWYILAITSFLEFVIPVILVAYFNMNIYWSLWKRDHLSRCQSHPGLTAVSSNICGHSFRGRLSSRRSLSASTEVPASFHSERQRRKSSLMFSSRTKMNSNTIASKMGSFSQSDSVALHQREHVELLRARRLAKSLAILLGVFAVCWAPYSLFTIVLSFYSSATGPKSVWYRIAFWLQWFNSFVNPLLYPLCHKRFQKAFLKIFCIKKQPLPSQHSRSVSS

[4] = biological target: Insulin receptor-related protein (Homo sapiens) (UniProt P14616); test: INSRR Invitrogen selectivity data (BI); details: Compound concentration 3.0 uM
Chain of Insulin receptor-related protein (Homo sapiens) (P14616 27-742 limits assumed): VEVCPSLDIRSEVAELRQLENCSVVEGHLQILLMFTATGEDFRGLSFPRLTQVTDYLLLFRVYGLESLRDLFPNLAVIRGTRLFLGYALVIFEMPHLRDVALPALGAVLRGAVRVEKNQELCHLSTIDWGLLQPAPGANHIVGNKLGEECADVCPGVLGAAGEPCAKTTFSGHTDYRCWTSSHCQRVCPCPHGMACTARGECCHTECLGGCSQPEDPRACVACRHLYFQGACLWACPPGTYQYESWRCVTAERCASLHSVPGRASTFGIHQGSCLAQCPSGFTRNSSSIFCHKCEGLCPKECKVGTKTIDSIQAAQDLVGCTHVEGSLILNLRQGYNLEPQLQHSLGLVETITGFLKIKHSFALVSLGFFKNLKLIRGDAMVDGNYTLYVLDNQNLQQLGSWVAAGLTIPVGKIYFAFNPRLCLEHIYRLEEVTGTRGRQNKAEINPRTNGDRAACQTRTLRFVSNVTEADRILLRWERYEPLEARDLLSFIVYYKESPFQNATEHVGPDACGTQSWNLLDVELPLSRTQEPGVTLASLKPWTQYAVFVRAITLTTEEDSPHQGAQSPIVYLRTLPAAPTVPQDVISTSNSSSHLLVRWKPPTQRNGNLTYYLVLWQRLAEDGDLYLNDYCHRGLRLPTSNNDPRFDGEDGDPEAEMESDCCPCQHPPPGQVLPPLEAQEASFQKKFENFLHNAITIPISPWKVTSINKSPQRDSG
Chain of Insulin receptor-related protein (Homo sapiens) (P14616 747-1297 limits assumed): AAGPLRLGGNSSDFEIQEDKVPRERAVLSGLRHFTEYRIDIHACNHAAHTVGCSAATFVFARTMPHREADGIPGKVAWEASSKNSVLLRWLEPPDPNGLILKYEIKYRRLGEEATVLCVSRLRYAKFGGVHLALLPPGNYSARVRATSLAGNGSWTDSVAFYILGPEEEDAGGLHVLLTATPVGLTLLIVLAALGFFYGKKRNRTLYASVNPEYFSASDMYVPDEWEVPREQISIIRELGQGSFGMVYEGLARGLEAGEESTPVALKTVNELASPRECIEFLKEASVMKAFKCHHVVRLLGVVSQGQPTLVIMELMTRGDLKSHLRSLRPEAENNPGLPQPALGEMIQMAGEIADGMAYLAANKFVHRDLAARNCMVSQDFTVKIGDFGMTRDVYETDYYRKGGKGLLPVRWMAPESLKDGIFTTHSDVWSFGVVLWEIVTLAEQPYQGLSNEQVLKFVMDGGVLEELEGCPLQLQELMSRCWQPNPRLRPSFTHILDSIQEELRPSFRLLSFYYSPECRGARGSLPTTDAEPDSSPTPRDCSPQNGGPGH

[5] = biological target: T1, Inhibitor of nuclear factor kappa-B kinase subunit epsilon (Homo sapiens) (UniProt Q14164); test: IKBKE Invitrogen selectivity data (BI); details: Compound concentration 3.0 uM
T1 sequence (whole entry): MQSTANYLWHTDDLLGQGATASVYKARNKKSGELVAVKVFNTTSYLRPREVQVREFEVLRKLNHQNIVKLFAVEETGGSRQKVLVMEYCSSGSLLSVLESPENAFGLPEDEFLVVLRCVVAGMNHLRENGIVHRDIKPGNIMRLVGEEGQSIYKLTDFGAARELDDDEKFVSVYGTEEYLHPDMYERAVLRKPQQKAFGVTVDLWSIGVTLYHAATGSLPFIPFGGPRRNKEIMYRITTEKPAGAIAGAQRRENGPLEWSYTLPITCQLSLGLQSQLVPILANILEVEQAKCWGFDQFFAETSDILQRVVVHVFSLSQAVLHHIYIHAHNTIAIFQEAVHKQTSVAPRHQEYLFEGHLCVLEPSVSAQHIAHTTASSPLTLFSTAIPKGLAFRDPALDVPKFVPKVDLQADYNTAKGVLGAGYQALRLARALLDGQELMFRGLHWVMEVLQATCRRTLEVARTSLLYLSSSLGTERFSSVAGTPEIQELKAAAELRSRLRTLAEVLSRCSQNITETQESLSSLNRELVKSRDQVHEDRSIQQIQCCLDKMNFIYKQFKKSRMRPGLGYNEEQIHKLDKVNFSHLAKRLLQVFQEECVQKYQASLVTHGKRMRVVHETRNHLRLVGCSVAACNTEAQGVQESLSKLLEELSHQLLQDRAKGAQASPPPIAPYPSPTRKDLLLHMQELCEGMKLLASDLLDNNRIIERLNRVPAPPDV

[6] = biological target: High affinity nerve growth factor receptor (Homo sapiens) (UniProt P04629); test: NTRK1 Invitrogen selectivity data (BI); details: Compound concentration 3.0 uM
Chain of High affinity nerve growth factor receptor (Homo sapiens) (P04629 33-796 limits assumed): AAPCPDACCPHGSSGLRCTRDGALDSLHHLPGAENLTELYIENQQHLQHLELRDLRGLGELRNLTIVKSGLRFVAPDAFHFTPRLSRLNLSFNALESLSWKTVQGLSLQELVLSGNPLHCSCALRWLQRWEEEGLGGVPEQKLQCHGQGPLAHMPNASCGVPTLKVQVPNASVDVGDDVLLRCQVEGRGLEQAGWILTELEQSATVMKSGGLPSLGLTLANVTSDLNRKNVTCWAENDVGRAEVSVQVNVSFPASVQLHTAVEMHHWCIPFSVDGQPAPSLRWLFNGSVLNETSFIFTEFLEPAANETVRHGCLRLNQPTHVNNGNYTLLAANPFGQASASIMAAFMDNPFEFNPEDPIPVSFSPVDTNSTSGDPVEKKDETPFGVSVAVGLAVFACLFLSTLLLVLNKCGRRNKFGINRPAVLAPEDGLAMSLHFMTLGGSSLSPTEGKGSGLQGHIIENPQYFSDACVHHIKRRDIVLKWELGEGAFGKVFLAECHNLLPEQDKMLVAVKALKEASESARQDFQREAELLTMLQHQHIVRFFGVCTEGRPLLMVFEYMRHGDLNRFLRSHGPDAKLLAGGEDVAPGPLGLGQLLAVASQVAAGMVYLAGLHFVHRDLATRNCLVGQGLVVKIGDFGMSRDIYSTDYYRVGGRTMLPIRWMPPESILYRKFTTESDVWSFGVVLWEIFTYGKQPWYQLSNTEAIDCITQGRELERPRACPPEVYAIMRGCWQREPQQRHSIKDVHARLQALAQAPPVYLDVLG

[7] = biological target: T2, Megakaryocyte-associated tyrosine-protein kinase (Homo sapiens) (UniProt P42679); test: MATK Invitrogen selectivity data (BI); details: Compound concentration 3.0 uM
T2 sequence (whole entry): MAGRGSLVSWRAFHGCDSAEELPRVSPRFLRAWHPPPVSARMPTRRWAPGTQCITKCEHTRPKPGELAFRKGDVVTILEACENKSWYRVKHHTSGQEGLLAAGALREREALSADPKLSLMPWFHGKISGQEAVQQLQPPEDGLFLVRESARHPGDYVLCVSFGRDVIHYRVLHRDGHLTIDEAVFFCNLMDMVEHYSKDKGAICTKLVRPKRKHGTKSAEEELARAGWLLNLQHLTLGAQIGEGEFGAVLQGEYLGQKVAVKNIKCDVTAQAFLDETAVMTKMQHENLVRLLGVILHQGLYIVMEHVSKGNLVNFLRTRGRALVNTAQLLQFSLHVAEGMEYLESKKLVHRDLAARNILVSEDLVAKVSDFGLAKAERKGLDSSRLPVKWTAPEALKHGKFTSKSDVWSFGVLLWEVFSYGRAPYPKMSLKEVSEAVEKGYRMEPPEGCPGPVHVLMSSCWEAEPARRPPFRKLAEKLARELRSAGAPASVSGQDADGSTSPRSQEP

[8] = biological target: Tyrosine-protein kinase HCK (Homo sapiens) (UniProt P08631); test: HCK Invitrogen selectivity data (BI); details: Compound concentration 3.0 uM
Chain of Tyrosine-protein kinase HCK (Homo sapiens) (P08631 2-526 limits assumed): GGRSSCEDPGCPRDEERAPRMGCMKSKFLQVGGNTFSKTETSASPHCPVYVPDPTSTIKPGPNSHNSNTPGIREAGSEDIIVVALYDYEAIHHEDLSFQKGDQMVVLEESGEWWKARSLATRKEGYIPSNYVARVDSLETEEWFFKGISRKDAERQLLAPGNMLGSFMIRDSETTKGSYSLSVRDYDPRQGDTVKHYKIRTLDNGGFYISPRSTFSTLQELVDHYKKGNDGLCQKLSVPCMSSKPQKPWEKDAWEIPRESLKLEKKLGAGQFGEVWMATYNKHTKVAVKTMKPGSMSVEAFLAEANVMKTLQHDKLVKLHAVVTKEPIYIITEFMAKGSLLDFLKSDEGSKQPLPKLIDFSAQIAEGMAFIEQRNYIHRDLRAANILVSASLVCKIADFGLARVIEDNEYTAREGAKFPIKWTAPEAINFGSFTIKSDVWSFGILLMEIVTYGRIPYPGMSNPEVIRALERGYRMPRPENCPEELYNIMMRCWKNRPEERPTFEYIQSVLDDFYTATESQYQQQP

[9] = biological target: Serine/threonine-protein kinase 24 (Homo sapiens) (UniProt Q9Y6E0); test: STK24 Invitrogen selectivity data (BI); details: Compound concentration 3.0 uM
Chain of Serine/threonine-protein kinase 24 (Homo sapiens) (Q9Y6E0 whole entry, looked up): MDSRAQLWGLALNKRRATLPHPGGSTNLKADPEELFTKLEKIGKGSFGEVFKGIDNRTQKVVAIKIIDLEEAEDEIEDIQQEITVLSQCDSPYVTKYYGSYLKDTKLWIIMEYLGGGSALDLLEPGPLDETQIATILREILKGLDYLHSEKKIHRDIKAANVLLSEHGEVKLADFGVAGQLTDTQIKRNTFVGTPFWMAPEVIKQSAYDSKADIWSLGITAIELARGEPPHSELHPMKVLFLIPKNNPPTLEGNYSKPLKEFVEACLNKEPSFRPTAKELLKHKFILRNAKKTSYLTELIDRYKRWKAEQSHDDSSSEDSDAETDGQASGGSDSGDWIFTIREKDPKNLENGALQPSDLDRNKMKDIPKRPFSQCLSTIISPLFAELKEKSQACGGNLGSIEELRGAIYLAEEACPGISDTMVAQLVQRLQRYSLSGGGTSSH

[10] = biological target: T3, Mitogen-activated protein kinase kinase kinase 5 (Homo sapiens) (UniProt Q99683); test: MAP3K5 Invitrogen selectivity data (BI); details: Compound concentration 3.0 uM
T3 sequence (whole entry): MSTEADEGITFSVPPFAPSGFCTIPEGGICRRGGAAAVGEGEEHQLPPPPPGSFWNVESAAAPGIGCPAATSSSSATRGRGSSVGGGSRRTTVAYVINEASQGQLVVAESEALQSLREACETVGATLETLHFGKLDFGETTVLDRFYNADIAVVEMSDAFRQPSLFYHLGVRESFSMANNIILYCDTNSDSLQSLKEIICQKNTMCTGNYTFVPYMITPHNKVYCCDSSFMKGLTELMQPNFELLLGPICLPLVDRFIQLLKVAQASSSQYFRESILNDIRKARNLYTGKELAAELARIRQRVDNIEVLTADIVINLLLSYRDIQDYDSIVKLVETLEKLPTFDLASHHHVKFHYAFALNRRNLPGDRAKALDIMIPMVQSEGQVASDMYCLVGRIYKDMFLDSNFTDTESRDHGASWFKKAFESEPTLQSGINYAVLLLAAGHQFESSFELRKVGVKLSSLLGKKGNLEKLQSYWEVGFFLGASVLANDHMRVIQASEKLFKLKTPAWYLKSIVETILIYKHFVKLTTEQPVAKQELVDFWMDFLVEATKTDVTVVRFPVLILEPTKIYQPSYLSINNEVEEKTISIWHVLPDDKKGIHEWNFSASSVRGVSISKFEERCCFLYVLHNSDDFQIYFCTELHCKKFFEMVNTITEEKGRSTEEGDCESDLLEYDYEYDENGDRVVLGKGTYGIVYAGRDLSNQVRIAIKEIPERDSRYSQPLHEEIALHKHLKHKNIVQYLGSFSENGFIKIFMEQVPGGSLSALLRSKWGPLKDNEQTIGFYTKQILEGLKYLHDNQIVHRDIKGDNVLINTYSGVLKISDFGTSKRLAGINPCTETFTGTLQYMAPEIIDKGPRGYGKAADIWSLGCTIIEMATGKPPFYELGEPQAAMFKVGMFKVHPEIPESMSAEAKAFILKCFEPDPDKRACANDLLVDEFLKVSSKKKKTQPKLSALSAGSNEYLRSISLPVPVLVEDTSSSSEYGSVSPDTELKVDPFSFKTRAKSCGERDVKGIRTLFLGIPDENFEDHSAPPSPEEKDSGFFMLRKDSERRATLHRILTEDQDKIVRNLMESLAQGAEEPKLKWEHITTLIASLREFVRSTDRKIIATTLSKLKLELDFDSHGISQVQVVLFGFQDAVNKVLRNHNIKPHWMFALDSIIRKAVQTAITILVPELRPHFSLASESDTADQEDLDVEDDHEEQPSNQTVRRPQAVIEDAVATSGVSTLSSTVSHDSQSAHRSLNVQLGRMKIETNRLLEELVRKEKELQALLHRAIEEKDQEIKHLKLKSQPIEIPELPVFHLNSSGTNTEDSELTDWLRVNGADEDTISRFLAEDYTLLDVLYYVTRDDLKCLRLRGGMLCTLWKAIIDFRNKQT

Measured: residual activity

Chain of Mitogen-activated protein kinase kinase kinase kinase 5 (Homo sapiens) (Q9Y4K4 whole entry, looked up): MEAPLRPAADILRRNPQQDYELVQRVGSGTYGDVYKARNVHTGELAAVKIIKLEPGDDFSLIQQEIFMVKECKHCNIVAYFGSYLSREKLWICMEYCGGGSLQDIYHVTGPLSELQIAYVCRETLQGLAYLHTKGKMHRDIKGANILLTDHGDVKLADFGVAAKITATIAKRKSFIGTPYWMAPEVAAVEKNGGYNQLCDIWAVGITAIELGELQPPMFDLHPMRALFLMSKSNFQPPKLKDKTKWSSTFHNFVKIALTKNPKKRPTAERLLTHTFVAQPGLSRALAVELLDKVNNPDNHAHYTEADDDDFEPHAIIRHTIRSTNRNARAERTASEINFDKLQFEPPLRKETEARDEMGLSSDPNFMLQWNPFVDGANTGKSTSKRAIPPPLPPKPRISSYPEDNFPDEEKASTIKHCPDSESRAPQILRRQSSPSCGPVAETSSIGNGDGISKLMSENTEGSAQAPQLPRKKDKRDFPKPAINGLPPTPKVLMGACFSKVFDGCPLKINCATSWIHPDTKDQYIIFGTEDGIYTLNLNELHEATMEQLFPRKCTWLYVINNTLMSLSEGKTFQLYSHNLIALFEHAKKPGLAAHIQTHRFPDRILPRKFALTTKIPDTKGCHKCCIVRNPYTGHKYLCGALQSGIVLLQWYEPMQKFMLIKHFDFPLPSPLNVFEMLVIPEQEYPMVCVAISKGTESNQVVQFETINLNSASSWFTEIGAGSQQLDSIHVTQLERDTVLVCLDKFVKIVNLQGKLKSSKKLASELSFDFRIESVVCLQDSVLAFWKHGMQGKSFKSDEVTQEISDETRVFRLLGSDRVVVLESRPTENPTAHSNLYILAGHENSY

CN(C)C(=O)Cn1cc(-c2nc([C@@](C)(c3ccc(-c4cnc(N)nc4)cc3)C3CC3)no2)cn1 [BI 665915]
inactive: [1] 93% | [2] 100% | [3] 109% | [4] 96% | [5] 99.5% | [6] 95.5% | [7] 97.5% | [8] 85% | [9] 100% | [10] 99%
